Experimental data published in ChEMBL document CHEMBL4400580, “Expanded Structure-Activity Studies of Lipoxazolidinone Antibiotics” (ACS Med Chem Lett, 2019).
Values after ≈ are worked out from the molar mass of the structure shown.

Experiments:
Staphylococcus aureus [1] = experiment: Antimicrobial activity against methicillin-sensitive Staphylococcus aureus ATCC 29213 measured after 16 hrs by broth microdilution method; assay type: functional; details: ATCC 29213, 16 h
Staphylococcus aureus [2] = experiment: Antimicrobial activity against methicillin-resistant Staphylococcus aureus ATCC 33591 measured after 16 hrs by broth microdilution method; assay type: functional; details: ATCC 33591, 16 h
Acinetobacter baumannii = experiment: Antimicrobial activity against Acinetobacter baumannii ATCC 19606 measured after 16 hrs by broth microdilution method; assay type: functional; details: ATCC 19606 = CIP 70.34 = JCM 6841, 16 h
Escherichia coli [3] = experiment: Antimicrobial activity against Escherichia coli SQ110 measured after 16 hrs by broth microdilution method; assay type: functional; details: SQ110, 16 h
Escherichia coli [4] = experiment: Antimicrobial activity against Escherichia coli SQ110 LPTD measured after 16 hrs by broth microdilution method; assay type: functional
Escherichia coli [5] = experiment: Antimicrobial activity against Escherichia coli SQ110 DTC measured after 16 hrs by broth microdilution method; assay type: functional
A549 = experiment: Cytotoxicity against human A549 cells assessed as reduction in cell viability measured after 72 hrs by ATP-liteM luciferin-luciferase assay; assay type: cell-based; details: A549, 72 h
[6] = Hemolysis in red blood cells (unknown origin) up to 40 uM; assay type: ADME, cell-based, Erythrocyte; details: read-out: Activity

Structure (SMILES) | MIC (Staphylococcus aureus [1]) [µg/mL] | MIC (Staphylococcus aureus [2]) [µg/mL] | MIC (Acinetobacter baumannii) [µg/mL] | MIC (Escherichia coli [3]) [µg/mL] | MIC (Escherichia coli [4]) [µg/mL] | MIC (Escherichia coli [5]) [µg/mL] | IC50 (A549) [µg/mL] | hemolysis [6] [%]
CC(C)[C@@H]1O/C(=C/C(=O)Cc2ccc(Br)cc2)NC1=O | 1 (≈ 2.96 µM) | 0.5 (≈ 1.48 µM) | 64 (≈ 189 µM) |  |  |  |  | 
CC(C)[C@@H]1O/C(=C/C(=O)Cc2cc(F)ccc2F)NC1=O | 16 (≈ 54.2 µM) | 8 (≈ 27.1 µM) |  |  |  |  |  | 
CC(C)[C@@H]1O/C(=C/C(=O)CCc2ccc(C(F)(F)F)cc2)NC1=O | 2 (≈ 5.86 µM) | 0.5 (≈ 1.46 µM) |  |  |  |  |  | 
CC(C)[C@@H]1O/C(=C/C(=O)Cc2ccccc2Br)NC1=O | 16 (≈ 47.3 µM) | 8 (≈ 23.7 µM) |  |  |  |  |  | 
CC(C)[C@@H]1O/C(=C/C(=O)CCCCCc2ccccc2)NC1=O | 4 (≈ 12.7 µM) | 2 (≈ 6.34 µM) | 128 (≈ 406 µM) |  |  |  |  | 
CC(C)[C@@H]1O/C(=C/C(=O)Cc2ccc(C#N)cc2)NC1=O | 8 (≈ 28.1 µM) | 4 (≈ 14.1 µM) |  |  |  |  |  | 
CC(C)[C@@H]1O/C(=C/C(=O)Cc2ccc(-c3ccccc3)cc2)NC1=O | 0.25 (≈ 0.745 µM) | 0.125 (≈ 0.373 µM) | > 128 | > 128 | 32 (≈ 95.4 µM) | 0.25 (≈ 0.745 µM) |  | 
Cc1ccc(C)c(CC(=O)/C=C2\NC(=O)[C@H](C(C)C)O2)c1 | 16 (≈ 55.7 µM) | 8 (≈ 27.8 µM) |  |  |  |  |  | 
CC(C)[C@@H]1O/C(=C/C(=O)CCc2ccc(Cl)cc2)NC1=O | 2 (≈ 6.5 µM) | 0.5 (≈ 1.62 µM) | 128 (≈ 416 µM) |  |  |  |  | 
CC(C)[C@@H]1O/C(=C/C(=O)Cc2ccc(C(C)(C)C)cc2)NC1=O | 4 (≈ 12.7 µM) | 2 (≈ 6.34 µM) |  |  |  |  |  | 
CC(C)[C@@H]1O/C(=C/C(=O)Cc2cc(F)c(F)c(F)c2)NC1=O | 8 (≈ 25.5 µM) | 4 (≈ 12.8 µM) |  |  |  |  |  | 
CC(C)[C@@H]1O/C(=C/C(=O)Cc2ccc([N+](=O)[O-])cc2)NC1=O | 64 (≈ 210 µM) | 8 (≈ 26.3 µM) |  |  |  |  |  | 
CC(C)[C@@H]1O/C(=C/C(=O)CCc2ccc(F)cc2)NC1=O | 16 (≈ 54.9 µM) | 8 (≈ 27.5 µM) |  |  |  |  |  | 
CC(C)[C@@H]1O/C(=C/C(=O)Cc2ccc(N)cc2)NC1=O | > 128 | 64 (≈ 233 µM) |  |  |  |  |  | 
CC(C)[C@@H]1O/C(=C/C(=O)Cc2ccc(Cl)cc2)NC1=O | 2 (≈ 6.81 µM) | 0.5 (≈ 1.7 µM) | 64 (≈ 218 µM) |  |  |  |  | 
Cc1ccc(CC(=O)/C=C2\NC(=O)[C@H](C(C)C)O2)cc1 | 4 (≈ 14.6 µM) | 2 (≈ 7.32 µM) | 128 (≈ 468 µM) |  |  |  |  | 
COc1ccc(OC)c(CC(=O)/C=C2\NC(=O)[C@H](C(C)C)O2)c1 | 16 (≈ 50.1 µM) | 4 (≈ 12.5 µM) |  |  |  |  |  | 
CCCCCCCCCC(=O)/C=C1\NC(=O)[C@H](C(C)C)O1 | 0.5 (≈ 1.69 µM) |  |  | > 128 | 32 (≈ 108 µM) | 1 to 2 (≈ 3.38 to 6.77 µM) | 10 (≈ 33.8 µM) | < 1
CC(C)[C@@H]1O/C(=C/C(=O)CCc2ccc(Br)cc2)NC1=O | 2 (≈ 5.68 µM) | 1 (≈ 2.84 µM) | 128 (≈ 363 µM) |  |  |  |  | 
CC(C)[C@@H]1O/C(=C/C(=O)CCc2ccccc2)NC1=O | 8 (≈ 29.3 µM) | 4 (≈ 14.6 µM) | 128 (≈ 468 µM) |  |  |  |  | 
CC(C)[C@@H]1O/C(=C/C(=O)Cc2cccc(Br)c2)NC1=O | 16 (≈ 47.3 µM) | 2 (≈ 5.91 µM) |  |  |  |  |  | 
CC(C)[C@@H]1O/C(=C/C(=O)CCc2ccc(C(C)(C)C)cc2)NC1=O | 2 (≈ 6.07 µM) | 0.25 (≈ 0.759 µM) |  |  |  |  |  | 
Cc1ccc(CCC(=O)/C=C2\NC(=O)[C@H](C(C)C)O2)cc1 | 16 (≈ 55.7 µM) | 8 (≈ 27.8 µM) |  |  |  |  |  | 
COc1ccc(OC)c(CCC(=O)/C=C2\NC(=O)[C@H](C(C)C)O2)c1 | 4 (≈ 12 µM) | 8 (≈ 24 µM) | > 128 |  |  |  |  | 
CC(C)[C@@H]1O/C(=C/C(=O)Cc2ccc(C(F)(F)F)cc2)NC1=O | 4 (≈ 12.2 µM) | 2 (≈ 6.11 µM) | 128 (≈ 391 µM) |  |  |  |  | 
CC(C)[C@@H]1O/C(=C/C(=O)Cc2ccc(OC(F)(F)F)cc2)NC1=O | 2 (≈ 5.83 µM) | 0.5 (≈ 1.46 µM) |  | > 128 | 32 (≈ 93.2 µM) | 0.06 (≈ 0.175 µM) | 14 (≈ 40.8 µM) | < 1
CC(C)[C@@H]1O/C(=C/C(=O)Cc2ccccc2)NC1=O | 4 (≈ 15.4 µM) | 2 (≈ 7.71 µM) |  | > 128 | 32 (≈ 123 µM) | 2 (≈ 7.71 µM) |  | 
CC(C)[C@@H]1O/C(=C/C(=O)Cc2ccc(F)cc2)NC1=O | 4 (≈ 14.4 µM) | 2 (≈ 7.21 µM) |  |  |  |  |  | 
CC(=O)NC[C@H]1CN(c2ccc(N3CCOCC3)c(F)c2)C(=O)O1 [LINEZOLID] | 1 (≈ 2.96 µM) | 0.5 (≈ 1.48 µM) | 64 (≈ 190 µM) | > 128 | 32 (≈ 94.9 µM) | 2 (≈ 5.93 µM) |  | 
